Tests used:
[1] = system: tubulin; experiment: Tubulin polymerization assay; assay type: biochemical; design: key: a compound showing 0 to 50% inhibition at 20 μM is reported as score 1; Score 2 compounds are defined as compound showing more than 50% inhibition at 20 μM and less than 50% inhibition at 5 μM; a compound showing more than 50% inhibition at 5 μM is reported as score 3; details: tested at 20 μM and 5 μM
Method in brief: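 Cytoskeleton kit tubulin was run in a 10 µl final volume at 37 °C, with fluorescence read every minute for 1 h. Polymerization was taken as the maximum slope (4-point linear regression) and expressed as % of no-compound control. Compounds were tested at 20 µM, then at 5 µM if inhibition exceeded 50%, and scored by % inhibition.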

[2] = target: T1, TANK-2 enzyme (Homo sapiens, UniProt Q9H2K2); experiment: In vitro Scintillation Proximity Assay (SPA) for TANK-2 inhibitory activity; assay type: biochemical; details: read-out: in vitro SPA assay TANK-2 pIC50 (converted)
T1 construct: made in house
T1 sequence (Q9H2K2 1-1166): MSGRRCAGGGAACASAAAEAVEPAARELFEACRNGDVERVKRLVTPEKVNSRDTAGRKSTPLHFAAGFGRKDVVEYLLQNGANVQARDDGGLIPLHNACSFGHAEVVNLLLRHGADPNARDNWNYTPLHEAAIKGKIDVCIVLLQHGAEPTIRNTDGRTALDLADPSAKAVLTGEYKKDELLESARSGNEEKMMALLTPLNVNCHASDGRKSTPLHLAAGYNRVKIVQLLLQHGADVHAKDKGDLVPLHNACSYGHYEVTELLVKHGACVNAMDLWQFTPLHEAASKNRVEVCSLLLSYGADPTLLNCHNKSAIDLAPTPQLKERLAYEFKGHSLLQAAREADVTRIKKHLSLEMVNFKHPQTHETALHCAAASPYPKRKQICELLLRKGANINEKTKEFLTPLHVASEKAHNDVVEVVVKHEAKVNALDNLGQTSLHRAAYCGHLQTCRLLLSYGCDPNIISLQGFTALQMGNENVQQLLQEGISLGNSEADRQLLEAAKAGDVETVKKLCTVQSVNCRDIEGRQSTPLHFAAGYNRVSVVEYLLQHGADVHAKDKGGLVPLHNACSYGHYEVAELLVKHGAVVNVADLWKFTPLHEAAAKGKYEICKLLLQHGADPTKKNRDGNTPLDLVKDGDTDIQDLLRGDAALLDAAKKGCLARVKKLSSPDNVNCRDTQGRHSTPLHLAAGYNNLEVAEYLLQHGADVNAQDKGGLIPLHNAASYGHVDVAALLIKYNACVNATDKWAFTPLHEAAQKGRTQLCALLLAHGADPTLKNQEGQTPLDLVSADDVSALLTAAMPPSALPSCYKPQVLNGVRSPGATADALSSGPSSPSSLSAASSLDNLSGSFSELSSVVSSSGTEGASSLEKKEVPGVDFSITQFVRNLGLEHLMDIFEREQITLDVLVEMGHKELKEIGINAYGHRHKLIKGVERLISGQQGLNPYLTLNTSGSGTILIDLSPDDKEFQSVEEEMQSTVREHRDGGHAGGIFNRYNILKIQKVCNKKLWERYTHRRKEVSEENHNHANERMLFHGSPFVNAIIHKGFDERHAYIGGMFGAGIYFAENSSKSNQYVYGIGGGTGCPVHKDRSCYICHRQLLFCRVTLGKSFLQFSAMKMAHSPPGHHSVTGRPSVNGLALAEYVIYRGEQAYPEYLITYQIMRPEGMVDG
Method in brief: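 TANK-2 (8 μg/ml final) auto-poly(ADP-ribosyl)ation with [3H]-NAD+/NAD donor was run in Ni flash plates in Tris/HCl pH 7.4 buffer with DTT and MgCl2, 120 min at room temperature, then stopped with excess NAD and scintillation-counted. Blank-corrected cpm was expressed as % of enzyme control, and IC50 was linearly interpolated and reported as pIC50.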

Row | Structure (SMILES) | melting point [°C] | tubulin polymerisation score [1] | IC50 [2] [nM]
1 | CCc1cc2ccc([C@@](C)(C#N)Cc3ccccc3)cc2[nH]c1=O (single isomer, unassigned) [Compound 46] | 177 | 2 | 25.1
2 | CCc1cc2ccc(C(C)(C#N)CC3COc4ccccc4O3)cc2[nH]c1=O (single isomer, unassigned) [Compound 47] | 176 |  | 316
3 | CCc1cc2ccc([C@](C)(C#N)Cc3nc(OC)cc(OC)n3)cc2[nH]c1=O (single isomer, unassigned) [Compound 52] | 178 | 1 (a compound showing 0 to 50% inhibition at 20 μM is reported as score 1) | 200
4 | CCc1cc2ccc([C@@](C)(C#N)Cc3nc(OC)cc(OC)n3)cc2[nH]c1=O (single isomer, unassigned) [Compound 53] | 163 | 3 (a compound showing more than 50% inhibition at 5 μM is reported as score 3) | 158
5 | CCc1cc2ccc(C(C)(C#N)Cc3cccc(C#C[Si](C)(C)C)c3)cc2[nH]c1=O (stereo not shown) [Compound 1] | 178 |  | 3980
6 | CCc1cc2ccc(C(C)(C#N)Cc3cccc(COC)c3)cc2[nH]c1=O (stereo not shown) [Compound 8] | 122 |  | 79.4
7 | CCc1cc2ccc(C(C)(C#N)Cc3cccc(CO)c3)cc2[nH]c1=O (stereo not shown) [Compound 9] | 182 |  | 63.1
8 | CCc1cc2ccc(C(C#N)(Cc3ccccc3)CC3CC3)cc2[nH]c1=O (stereo not shown) [Compound 28] | 212 |  | 316
9 | CC(C#N)(Cc1ccccc1)c1ccc2cc(CO)c(=O)[nH]c2c1 (stereo not shown) [Compound 40] | 176 |  | 158
10 | CCc1cc2ccc(C(C)(C#N)Cc3c(F)ccc(C)c3F)cc2[nH]c1=O (stereo not shown) [Compound 41] | 190 |  | 79.4
11 | CCc1cc2ccc(C(C)(C#N)Cc3nnsc3Cl)cc2[nH]c1=O (stereo not shown) [Compound 42] | 220 | 1 (a compound showing 0 to 50% inhibition at 20 μM is reported as score 1) | 79.4
12 | CCc1cc2ccc(C(C)(C#N)Cc3nc(OC)cc(OC)n3)cc2[nH]c1=O (stereo not shown) [Compound 43] | 90 |  | 158
13 | CCc1cc2ccc(C(C)(C#N)Cc3ccccc3)cc2[nH]c1=O (stereo not shown) [Compound 44] | 168 |  | 39.8
14 | CCc1cc2ccc(C(C)(C#N)Cc3cccc(Br)c3)cc2[nH]c1=O (stereo not shown) [Compound 49] | 186 |  | 31.6
15 | CCOP(=O)(OCC)c1cccc(CC(C)(C#N)c2ccc3cc(CC)c(=O)[nH]c3c2)c1 (stereo not shown) [Compound 50] | 80 |  | 200
16 | CCc1cc2ccc(C(C)(C#N)Cc3cccc(C#N)c3)cc2[nH]c1=O (stereo not shown) [Compound 51] | 192 |  | 39.8
17 | CCc1cc2ccc(C(C)(C#N)CCOc3ccc([N+](=O)[O-])cc3)cc2[nH]c1=O (stereo not shown) [Compound 54] | 216 |  | 158
18 | Cc1cc2ccc(C(C)(C#N)Cc3cc4ccccc4[nH]3)cc2[nH]c1=O (stereo not shown) [Compound 234] | > 260 |  | 794

From patent US8778966B2, “Quinolinone derivatives as PARP and tank inhibitors” (Janssen Pharmaceutica, NV, priority 2007, dated 2014)
